Here are results for two compounds from patent US20260272895A1, “METHODS AND KITS FOR DELIVERY OF COMPOUNDS INTO CELLS” (Yale University, priority 2023, published 2026).

SMILES strings stand for the structures.

The target of the experiment is T1, SLCO1A2 (Homo sapiens, UniProt P46721).
T1 sequence (P46721 1-670): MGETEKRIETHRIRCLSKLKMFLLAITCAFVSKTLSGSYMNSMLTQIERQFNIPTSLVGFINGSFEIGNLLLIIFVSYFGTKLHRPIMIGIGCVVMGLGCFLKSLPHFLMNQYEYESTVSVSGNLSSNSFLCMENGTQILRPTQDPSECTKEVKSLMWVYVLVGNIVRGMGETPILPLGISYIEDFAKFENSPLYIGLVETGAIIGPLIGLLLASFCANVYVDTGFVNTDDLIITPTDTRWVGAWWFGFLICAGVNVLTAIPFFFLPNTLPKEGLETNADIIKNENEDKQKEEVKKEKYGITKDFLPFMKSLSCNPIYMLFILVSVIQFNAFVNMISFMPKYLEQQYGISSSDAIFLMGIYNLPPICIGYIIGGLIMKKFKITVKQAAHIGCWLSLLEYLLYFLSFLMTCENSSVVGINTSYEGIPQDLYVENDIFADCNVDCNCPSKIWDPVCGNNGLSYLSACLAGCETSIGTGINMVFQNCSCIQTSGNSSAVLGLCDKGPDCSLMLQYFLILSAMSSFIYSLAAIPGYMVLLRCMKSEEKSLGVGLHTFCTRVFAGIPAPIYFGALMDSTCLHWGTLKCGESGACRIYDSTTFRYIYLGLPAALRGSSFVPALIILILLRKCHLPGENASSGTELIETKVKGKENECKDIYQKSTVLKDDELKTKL
Put plainly: Uptake by cells ectopically expressing SLCO1A2 (in utero electroporation or AAV8) in live mice. Format: in vivo, mouse. On the set-up: P2A:EGFP (AAV8 construct only; EGFP is separated at P2A) (C, cleaved yes); FLAG (in utero electroporation plasmid only); host or cells: cortical neurons of live mice (AAV8 subarachnoid infusion or in utero electroporation). The settings on record: topical cortical administration (50 μM where stated). The method, then:
IUE is performed at E14 or E15 as previously done. Briefly, timed pregnant mice are anaesthetized with ketamine/xylazine. The abdominal region is shaved, sterilized and a 3 cm midline incision is made in the skin and abdominal muscle. The uterine horns are exposed, and the lateral ventricle of each embryo is pressure injected (Picospritzer II, General Valve) with plasmid DNA (~[…] volume per embryo) at a concentration of […] followed by electroporation with tweezertrodes (50 V, 4-50 ms pulses with I s pulse interval. BTX Harvard Apparatus). The embryos are placed back in the mother womb, and the muscle and skin are sutured. Electroporated pups are aged to postnatal day 30. Imaging is performed through a craniotomy over the transfected hemisphere following dye labeling.
The Adeno-associated virus (AAV) for expression of SLCO1A2 was custom-made (VectorBuilders). Briefly, The AAV8 virus carrying the pAAV-CAG>hSLCO1A2:P2A:EGFP construct was produced by cloning the hSLCO1A2 gene variant downstream of the CAG promoter in the pAAV8 expression vector. A P2A sequence was inserted to link the hSLCO1A2 gene with the EGFP coding sequence. The constructed vector was transfected into HEK293 cells, and the virus produced was harvested and ultra-purified for a final titer >10^13 GC/mL. AAV virus were injected into the mouse subarachnoid space using a previously described method. Briefly, mice were anesthetized with ketamine-xylazine. A skull window, approximately 1 mm in diameter, was created using a high-speed drill at coordinates 6 mm anteroposterior and 3 mm mediolateral from bregma. Subsequently, a 30-gauge needle was carefully used to lift a small piece of thinned skull, exposing the underlying dura. The stock solutions of AAV were diluted in fresh sterile phosphate-buffered saline (PBS) solution (1:20, v/v) at room temperature, then kept on ice and adjusted to a titer of 10^12 GC/mL. The AAV solutions were loaded into a Tygon tube, connected to a polypropylene tip with an outer diameter of 70 μm, which was further attached to a programmable syringe pump with a Hamilton syringe. […]

With `O=S(=O)([O-])c1cc(S(=O)(=O)O)ccc1C1=c2cc3c4c(c2Oc2cc(Br)ccc21)CCC[N+]=4CCC3` [Compound 1, 2-(12-bromo-1,2,3,5,6,7-hexahydrochromeno[2,3-f]pyrido[3,2,1-ij]quinolin-4-ium-9-yl)-5-sulfobenzenesulfonate], the “uptake by neurons ectopically expressing SLCO1A2” value (“uptake” for short) was “only those cells that express SLCO1A2 or SLCO1A4 (as evidenced by the GFP fluorescence (green)) take up compound 1”. Take `COc1cc2c(c(OC)c1OC)-c1ccc(OC)c(=O)cc1C(NS(=O)(=O)c1ccc(-c3c4ccc(N(C)C)cc4[o+]c4cc(N(C)C)ccc34)c(S(=O)(=O)[O-])c1)CC2` (stereo not drawn) [Compound 47, 2-(3,6-bis(dimethylamino)xanthylium-9-yl)-5-(N-(1,2,3,10-tetramethoxy-9-oxo-5,6,7,9-tetrahydrobenzo[a]heptalen-7-yl)sulfamoyl)benzenesulfonate]: the “uptake” value (listed as Colchicine-eEDITS) is listed as “robust uptake by cells expressing SLCO1A2” and the “uptake” value (listed as Colchicine-eEDiTS) is recorded as “marked uptake”.
